# Data from US4647586A, “Pharmaceutical oil-in-water type micro-emulsion” (priority 1984, dated 1987).
# System: Carrageenin-induced paw edema
# Assay: Carrageenin-induced paw edema in rats [Test 2]
# Format: in vivo, SD-strain male rats
# Experimental: (a) Experimental animals: SD-strain male rats (120-180 g).
# A micro-emulsion containing ethyl 4-biphenylylacetate prepared as in Examples 11, 12, 13 and 14 given hereinafter was administered at a dose of 5 ml per kg of the animals. Venolipid® (Morishita Pharmaceutical Co., Ltd.) was used as a vehicle control. As control drugs, a solution or suspension of ethyl 4-biphenylylacetate in physiological saline containing 0.5% Cremophor EL® (Sigma Chemical Company, a solubilizing agent), 0.2% of polyethylene glycol 400 and 10% of dimethyl sulfoxide, a physiological saline solution of sodium 4-biphenylylacetate and a physiological saline solution of Aspirin DL-lysine [Venopirin®, Green Cross Co.] were used. As the vehicle control of the control drugs, the above solvents were used.
# A 1% carrageenin solution in physiological saline was injected subcutaneously in an amount of 0.05 ml into the planter surface of the left hind paw of each rat via a 25 gauge needle fitted to a 0.25 ml syringe. One hour after carrageenin injection, the rats were randomized on the basis of the edema volume, and intravenous administration of the drugs and vehicles followed immediately. The volume of the left hind paw was measured by a plethysmometer (Ugo Basile) prior to the injection of the carrageenin solution and at 2, 3, 4, 5 and 6 hours after the carrageenin injection. As the volume of edema, an increase in the paw volume was taken.
# The inhibition percents were calculated in accordance with the same calculation formula as in Test 1.
smiles,measurement,setting,value
O=C([O-])Cc1ccc(-c2ccccc2)cc1.[Na+],Inhibition (%),"1.25 mg/kg i.v. as 4-biphenylylacetic acid, 2 h after carrageenin",6.6%
same,Inhibition (%),"1.25 mg/kg i.v. as 4-biphenylylacetic acid, 3 h after carrageenin",0%
same,Inhibition (%),"1.25 mg/kg i.v. as 4-biphenylylacetic acid, 4 h after carrageenin",8.5%
same,Inhibition (%),"1.25 mg/kg i.v. as 4-biphenylylacetic acid, 5 h after carrageenin",5.2%
same,Inhibition (%),"1.25 mg/kg i.v. as 4-biphenylylacetic acid, 6 h after carrageenin",6.1%
same,Inhibition (%),"2.5 mg/kg i.v. as 4-biphenylylacetic acid, 2 h after carrageenin","19,7%"
same,Inhibition (%),"2.5 mg/kg i.v. as 4-biphenylylacetic acid, 3 h after carrageenin",11.7%
same,Inhibition (%),"2.5 mg/kg i.v. as 4-biphenylylacetic acid, 4 h after carrageenin",18.6%
same,Inhibition (%),"2.5 mg/kg i.v. as 4-biphenylylacetic acid, 5 h after carrageenin",20.7%
same,Inhibition (%),"2.5 mg/kg i.v. as 4-biphenylylacetic acid, 6 h after carrageenin",10.2%
same,Inhibition (%),"5.0 mg/kg i.v. as 4-biphenylylacetic acid, 2 h after carrageenin",9.8%
same,Inhibition (%),"5.0 mg/kg i.v. as 4-biphenylylacetic acid, 3 h after carrageenin",6.6%
same,Inhibition (%),"5.0 mg/kg i.v. as 4-biphenylylacetic acid, 4 h after carrageenin",20.3%
same,Inhibition (%),"5.0 mg/kg i.v. as 4-biphenylylacetic acid, 5 h after carrageenin",19.0%
same,Inhibition (%),"5.0 mg/kg i.v. as 4-biphenylylacetic acid, 6 h after carrageenin",30.6%
same,Inhibition (%),"10.0 mg/kg i.v. as 4-biphenylylacetic acid, 2 h after carrageenin",23.0%
same,Inhibition (%),"10.0 mg/kg i.v. as 4-biphenylylacetic acid, 3 h after carrageenin",28.3%
same,Inhibition (%),"10.0 mg/kg i.v. as 4-biphenylylacetic acid, 4 h after carrageenin",35.6%
same,Inhibition (%),"10.0 mg/kg i.v. as 4-biphenylylacetic acid, 5 h after carrageenin",29.3%
same,Inhibition (%),"10.0 mg/kg i.v. as 4-biphenylylacetic acid, 6 h after carrageenin",30.6%
same,ED30,"Rattus norvegicus, iv, read-out: ED30 (dose required to cause a 30% inhibition of edema volume)",10.5 mg/kg
